{
  "source": "patent US8017558B2",
  "about": "“Carboxamides for controlling micro-organisms in plant and material protection” (priority 2005, dated 2011)",
  "key": {"[1]": {"assay": "logP determination by HPLC on reversed-phase column (C 18), EEC Directive 79/831 Annex V.A8", "assay_type": "physicochemical", "conditions": "for chromatographic logP: reversed-phase HPLC column (C 18)", "procedure": "The logP values given in the Tables and Preparation Examples above are determined in accordance with EEC Directive 79/831 Annex V.A8 by HPLC (High Performance Liquid Chromatography) on a reversed-phase column (C 18). Temperature: 43° C. The determination is carried out in the acidic range at pH 2.3 using the mobile phases 0.1% aqueous phosphoric acid and acetonitrile; linear gradient from 10% acetonitrile to 90% acetonitrile. The determination is carried out in the neutral range at pH 7.5 using the mobile phases 0.01-molar aqueous phosphate buffer solution and acetonitrile; linear gradient from 10% acetonitrile to 90% acetonitrile. Calibration is carried out using unbranched alkan-2-ones (having 3 to 16 carbon atoms), with known logP values (determination of the logP values by the retention times using linear interpolation between two successive alkanones)."}, "Uromyces appendiculatus": {"test_system": "Uromyces appendiculatus", "assay": "Uromyces Test (bean)/protective", "assay_type": "in vivo", "conditions": "protective spray, application rate 100 ppm, evaluation 10 days after inoculation", "procedure": "Uromyces Test (Bean)/Protective\n(§1) To produce a suitable preparation of active compound, 1 part by weight of active compound is mixed with the stated amounts of solvents and emulsifier and the concentrate is diluted with water to the desired concentration. To test for protective activity, young plants are sprayed with the active compound preparation at the stated application rate. After the spray coating has dried on, the plants are inoculated with an aqueous spore suspension of the bean rust pathogen Uromyces appendiculatus and then remain in an incubation cabinet at about 20° C. and 100% relative atmospheric humidity for 1 day. The plants are then placed in a greenhouse at about 21° C. and a relative atmospheric humidity of about 90%. Evaluation is carried out 10 days after the inoculation. 0% means an efficacy which corresponds to that of the control, whereas an efficacy of 100% means that no infection is observed."}, "Alternaria solani": {"test_system": "Alternaria solani", "assay": "Alternaria Test (tomato)/protective", "assay_type": "in vivo", "conditions": "protective spray, application rate 500 ppm, evaluation 7 days after inoculation", "procedure": "Alternaria Test (Tomato)/Protective\nTo produce a suitable preparation of active compound, 1 part by weight of active compound is mixed with the stated amounts of solvent and emulsifier and the concentrate is diluted with water to the desired concentration. To test for protective activity, young tomato plants are sprayed with the active compound preparation at the stated application rate. 1 day after the treatment, the plants are inoculated with a spore suspension of Alternaria solani and then remain at 100% relative atmospheric humidity and 20° C. for 24 h. The plants then remain at 96% relative atmospheric humidity and a temperature of 20° C. Evaluation is carried out 7 days after the inoculation. 0% means an efficacy which corresponds to that of the control, whereas an efficacy of 100% means that no infection is observed."}, "Botrytis cinerea": {"test_system": "Botrytis cinerea", "assay": "Botrytis Test (bean)/protective", "assay_type": "in vivo", "conditions": "protective spray, application rate 250 ppm, evaluation 2 days after inoculation", "procedure": "Botrytis Test (Bean)/Protective\nTo produce a suitable preparation of active compound, 1 part by weight of active compound is mixed with the stated amounts of solvents and emulsifier and the concentrate is diluted with water to the desired concentration. To test for protective activity, young plants are sprayed with the active compound preparation at the stated application rate. After the spray coating has dried on, 2 small pieces of agar colonized by Botrytis cinerea are placed onto each leaf. The inoculated plants are placed in a dark chamber at about 20° C. and 100% relative atmospheric humidity. The size of the infected areas on the leaves is evaluated 2 days after the inoculation. 0% means an efficacy which corresponds to that of the control, whereas an efficacy of 100% means that no infection is observed."}, "Venturia inaequalis": {"test_system": "Venturia inaequalis", "assay": "Venturia Test (apple)/protective", "assay_type": "in vivo", "conditions": "protective spray, application rate 100 ppm, evaluation 10 days after inoculation", "procedure": "Venturia Test (Apple)/Protective\nas §1, with “rates.” for “rate.”, “conidia” for “spore”, “apple scab” for “bean rust”, “Venturia inaequalis” for “Uromyces appendiculatus”, “cabin” for “cabinet”"}, "Sphaerotheca fuliginea": {"test_system": "Sphaerotheca fuliginea", "assay": "Sphaerotheca Test (cucumber)/protective", "assay_type": "in vivo", "conditions": "protective spray, application rate 100 ppm, evaluation 7 days after inoculation", "procedure": "Sphaerotheca Test (Cucumber)/Protective\nTo produce a suitable preparation of active compound, 1 part by weight of active compound is mixed with the stated amounts of solvents and emulsifier, and the concentrate is diluted with water to the desired concentration.\nTo test for protective activity, young plants are sprayed with the active compound preparation at the stated application rate. After the spray coating has dried on, the plants are inoculated with an aqueous spore suspension of Sphaerotheca fuliginea. The plants are then placed in a greenhouse at about 23° C. and a relative atmospheric humidity of about 70%.\nEvaluation is carried out 7 days after the inoculation. 0% means an efficacy which corresponds to that of the control, whereas an efficacy of 100% means that no infection is observed."}, "Puccinia recondita": {"test_system": "Puccinia recondita", "assay": "Puccinia Test (wheat)/protective", "assay_type": "in vivo", "conditions": "protective spray, application rate 1000 ppm, evaluation 10 days after inoculation", "procedure": "Puccinia Test (Wheat)/Protective\n(§2) To produce a suitable preparation of active compound, 1 part by weight of active compound is mixed with the stated amounts of solvent and emulsifier and the concentrate is diluted with water to the desired concentration. To test for protective activity, young plants are sprayed with the active compound preparation at the stated application rate. After the spray coating has dried on, the plants are sprayed with a conidia suspension of Puccinia recondita. The plants remain in an incubation cabin at 20° C. and 100% relative atmospheric humidity for 48 hours. The plants are then placed in a greenhouse at a temperature of about 20° C. and a relative atmospheric humidity of about 80% to promote the development of rust pustules. Evaluation is carried out 10 days after the inoculation. 0% means an efficacy which corresponds to that of the control, whereas an efficacy of 100% means that no infection is observed."}, "Pyrenophora teres": {"test_system": "Pyrenophora teres", "assay": "Pyrenophora teres Test (barley)/protective", "assay_type": "in vivo", "conditions": "protective spray, application rate 1000 ppm, evaluation 8 days after inoculation", "procedure": "Pyrenophora teres Test (Barley)/Protective\nas §2, with “of Pyrenophora teres.” for “of Puccinia recondita.”, “about 80%.” for “about 80% to promote the development of rust pustules.”, “out 8” for “out 10”"}, "[2]": {"conditions": "pH 2.3, 0.1% aqueous phosphoric acid/acetonitrile gradient, 43° C."}},
  "data": [
    {"smiles": "COCCSC(=Nc1ccccc1C1CC2CCC1C2)c1cn(C)nc1C(F)F", "note": "(stereo not drawn) [Compound 3]", "values": [
      {"measurement": "logP (pH 2.3)", "setting": "[1]; [2]", "result": 4.62}
    ]},
    {"smiles": "Cn1cc(C(=Nc2ccccc2C2CC3CCC2C3)SCC#N)c(C(F)F)n1", "note": "(stereo not drawn) [Compound 6]", "values": [
      {"measurement": "logP (pH 2.3)", "setting": "[1]; [2]", "result": 4.15}
    ]},
    {"smiles": "Cn1cc(C(=Nc2ccccc2C2CC3CCC2C3)SCSC#N)c(C(F)F)n1", "note": "(stereo not drawn) [Compound 7]", "values": [
      {"measurement": "logP (pH 2.3)", "setting": "[1]; [2]", "result": 4.55}
    ]},
    {"smiles": "C#CCSC(=Nc1ccccc1C1CC2CCC1C2)c1cn(C)nc1C(F)F", "note": "(stereo not drawn) [Compound 8]", "values": [
      {"measurement": "logP (pH 2.3)", "setting": "[1]; [2]", "result": 4.65}
    ]},
    {"smiles": "CS/C(=N\\c1ccccc1C1CC2CCC1C2)c1cn(C)nc1C(F)F", "note": "(stereo not drawn) [Compound 9, methyl N-(2-bicyclo[2.2.1]hept-2-ylphenyl)-3-(difluoromethyl)-1-methyl-1H-pyrazole-4-carbimidothioate]", "values": [
      {"measurement": "chromatographic logP", "setting": "[1]; [2]", "result": 4.75}
    ]},
    {"smiles": "Cn1cc(C(=Nc2ccccc2C2CC3CCC2C3)SCCO)c(C(F)F)n1", "note": "(stereo not drawn) [Compound 10]", "values": [
      {"measurement": "Efficacy in %", "setting": "Uromyces appendiculatus", "result": 100, "unit": "%"},
      {"measurement": "Efficacy in %", "setting": "Alternaria solani", "result": 100, "unit": "%"},
      {"measurement": "logP (pH 2.3)", "setting": "[1]; pH 2.3", "result": 3.23},
      {"measurement": "Efficacy in %", "setting": "Botrytis cinerea", "result": 100, "unit": "%"},
      {"measurement": "Efficacy in %", "setting": "Venturia inaequalis", "result": 100, "unit": "%"},
      {"measurement": "Efficacy in %", "setting": "Sphaerotheca fuliginea", "result": 100, "unit": "%"}
    ]},
    {"smiles": "CCOC(=O)CSC(=Nc1ccccc1C1CC2CCC1C2)c1cn(C)nc1C(F)F", "note": "(stereo not drawn) [Compound 11]", "values": [
      {"measurement": "Efficacy in %", "setting": "Uromyces appendiculatus", "result": 100, "unit": "%"},
      {"measurement": "Efficacy in %", "setting": "Alternaria solani", "result": 95, "unit": "%"},
      {"measurement": "logP (pH 2.3)", "setting": "[1]; pH 2.3", "result": 4.66},
      {"measurement": "Efficacy in %", "setting": "Botrytis cinerea", "result": 100, "unit": "%"},
      {"measurement": "Efficacy in %", "setting": "Venturia inaequalis", "result": 100, "unit": "%"},
      {"measurement": "Efficacy in %", "setting": "Puccinia recondita", "result": 100, "unit": "%"},
      {"measurement": "Efficacy in %", "setting": "Pyrenophora teres", "result": 100, "unit": "%"},
      {"measurement": "Efficacy in %", "setting": "Sphaerotheca fuliginea", "result": 100, "unit": "%"}
    ]},
    {"smiles": "Cn1cc(C(=Nc2ccccc2C2CC3CCC2C3)SCc2ccc(Cl)nc2)c(C(F)F)n1", "note": "(stereo not drawn) [Compound 12]", "values": [
      {"measurement": "logP (pH 2.3)", "setting": "[1]; [2]", "result": 4.95}
    ]},
    {"smiles": "CCCCCCCCCCCCSC(=Nc1ccccc1C1CC2CCC1C2)c1cn(C)nc1C(F)F", "note": "(stereo not drawn) [Compound 13]", "values": [
      {"measurement": "logP (pH 2.3)", "setting": "[1]; [2]", "result": 7.36}
    ]},
    {"smiles": "Cn1cc(C(=Nc2ccccc2C2CC3CCC2C3)SC(=O)C(C)(C)C)c(C(F)F)n1", "note": "(stereo not drawn) [Compound 18]", "values": [
      {"measurement": "logP (pH 2.3)", "setting": "[1]; [2]", "result": 5.81}
    ]},
    {"smiles": "CCC1(C(=O)SC(=Nc2ccccc2C2CC3CCC2C3)c2cn(C)nc2C(F)F)C(C)C1(Cl)Cl", "note": "(stereo not drawn) [Compound 19]", "values": [
      {"measurement": "Efficacy in %", "setting": "Uromyces appendiculatus", "result": 96, "unit": "%"},
      {"measurement": "Efficacy in %", "setting": "Alternaria solani", "result": 90, "unit": "%"},
      {"measurement": "logP (pH 2.3)", "setting": "[1]; pH 2.3", "result": 6.52},
      {"measurement": "Efficacy in %", "setting": "Venturia inaequalis", "result": 99, "unit": "%"},
      {"measurement": "Efficacy in %", "setting": "Puccinia recondita", "result": 93, "unit": "%"},
      {"measurement": "Efficacy in %", "setting": "Pyrenophora teres", "result": 92, "unit": "%"}
    ]},
    {"smiles": "Cn1cc(C(=Nc2ccccc2C2CC3CCC2C3)SC(=O)C2(C)CCCCC2)c(C(F)F)n1", "note": "(stereo not drawn) [Compound 20]", "values": [
      {"measurement": "Efficacy in %", "setting": "Uromyces appendiculatus", "result": 99, "unit": "%"},
      {"measurement": "Efficacy in %", "setting": "Alternaria solani", "result": 80, "unit": "%"},
      {"measurement": "logP (pH 2.3)", "setting": "[1]; pH 2.3", "result": 6.66},
      {"measurement": "Efficacy in %", "setting": "Venturia inaequalis", "result": 100, "unit": "%"},
      {"measurement": "Efficacy in %", "setting": "Puccinia recondita", "result": 100, "unit": "%"},
      {"measurement": "Efficacy in %", "setting": "Pyrenophora teres", "result": 100, "unit": "%"},
      {"measurement": "Efficacy in %", "setting": "Sphaerotheca fuliginea", "result": 100, "unit": "%"}
    ]},
    {"smiles": "Cc1nn(C)c(F)c1C(=S)Nc1ccccc1C(C)CC(C)(C)C", "note": "(stereo not drawn) [II-1]", "values": [
      {"measurement": "logP (at pH 7.5)", "setting": "[1]; pH 7.5, 0.01-molar aqueous phosphate buffer/acetonitrile gradient, 43° C.", "result": "3.70 (at pH 7.5)"}
    ]},
    {"smiles": "Cn1cc(C(=S)Nc2ccccc2C2CC3CCC2C3)c(C(F)F)n1", "note": "(stereo not drawn) [II-7, N-(2-bicyclo[2.2.1]hept-2-ylphenyl)-3-(difluoromethyl)-1-methyl-1H-pyrazole-4-thiocarboxamide]", "values": [
      {"measurement": "chromatographic logP", "setting": "[1]; [2]", "result": 3.66}
    ]},
    {"smiles": "Cn1cc(C(=NNc2ccccc2)Nc2ccccc2C2CC3CCC2C3)c(C(F)F)n1", "note": "(stereo not drawn) [II-8, N-(2-bicyclo[2.2.1]hept-2-ylphenyl)-3-(difluoromethyl)-1-methyl-N′-phenyl-1H-pyrazole-4-carbohydrazonamide]", "values": [
      {"measurement": "chromatographic logP", "setting": "[1]; [2]", "result": 3.66}
    ]},
    {"smiles": "Cn1cc(C(=NO)Nc2ccccc2C2CC3CCC2C3)c(C(F)F)n1", "note": "(stereo not drawn) [II-9]", "values": [
      {"measurement": "logP (pH 2.3)", "setting": "[1]; [2]", "result": 2.88}
    ]}
  ]
}
